Assay results as given in the Kinase Knowledgebase extract (Sharma et al. 2016).

Assays:
EGFR (human) [1] = target: EGFR (human) (UniProt P00533); settings: hn5
EGFR (human) [2] = target: EGFR (human) (UniProt P00533)

EGFR (human), sequence (P00533 whole entry, looked up): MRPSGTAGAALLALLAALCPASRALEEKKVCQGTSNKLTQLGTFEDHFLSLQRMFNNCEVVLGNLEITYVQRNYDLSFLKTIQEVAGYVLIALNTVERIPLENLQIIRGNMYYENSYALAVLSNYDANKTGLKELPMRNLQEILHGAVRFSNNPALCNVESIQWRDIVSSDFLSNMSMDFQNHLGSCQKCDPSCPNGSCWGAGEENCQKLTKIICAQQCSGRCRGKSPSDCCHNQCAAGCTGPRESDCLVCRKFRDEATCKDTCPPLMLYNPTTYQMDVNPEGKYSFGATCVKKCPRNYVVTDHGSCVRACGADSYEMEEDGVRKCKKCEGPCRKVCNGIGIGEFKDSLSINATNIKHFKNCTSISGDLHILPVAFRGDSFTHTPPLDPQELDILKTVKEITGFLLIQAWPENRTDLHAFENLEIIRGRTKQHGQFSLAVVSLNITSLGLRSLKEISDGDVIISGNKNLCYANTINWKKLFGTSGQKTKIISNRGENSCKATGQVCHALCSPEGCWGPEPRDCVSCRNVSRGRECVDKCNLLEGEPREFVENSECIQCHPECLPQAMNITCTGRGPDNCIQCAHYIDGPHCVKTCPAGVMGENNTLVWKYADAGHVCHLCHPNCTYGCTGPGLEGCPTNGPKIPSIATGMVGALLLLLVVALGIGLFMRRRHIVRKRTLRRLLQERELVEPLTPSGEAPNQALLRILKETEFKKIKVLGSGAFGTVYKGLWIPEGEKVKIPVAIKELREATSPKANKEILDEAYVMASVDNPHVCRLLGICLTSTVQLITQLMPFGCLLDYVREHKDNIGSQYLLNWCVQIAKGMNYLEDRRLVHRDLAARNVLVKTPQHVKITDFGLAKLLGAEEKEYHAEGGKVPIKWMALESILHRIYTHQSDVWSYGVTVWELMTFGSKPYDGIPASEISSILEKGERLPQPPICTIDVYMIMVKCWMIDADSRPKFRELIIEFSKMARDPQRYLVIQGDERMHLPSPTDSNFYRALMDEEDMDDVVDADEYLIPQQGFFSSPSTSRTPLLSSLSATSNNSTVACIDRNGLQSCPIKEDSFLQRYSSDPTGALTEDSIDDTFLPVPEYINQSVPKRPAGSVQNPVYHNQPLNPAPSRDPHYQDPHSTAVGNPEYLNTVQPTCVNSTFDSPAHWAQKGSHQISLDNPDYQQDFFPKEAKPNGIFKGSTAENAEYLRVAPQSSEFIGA

IC50 (EGFR (human) [1]) [nM] | IC50 (EGFR (human) [2]) [nM] | SMILES
1130 | 29 | CS(=O)(=O)CCNCc1ccc(-c2ccc3ncnc(Nc4ccc(S(=O)(=O)c5ccccc5)cc4)c3c2)o1
830 | 26 | Cc1nnc(-c2ccc3ncnc(Nc4ccc5c(cnn5Cc5cccc(F)c5)c4)c3c2)o1
300 | 36 | CN(CCO)c1cc2c(Nc3ccc4c(cnn4Cc4ccccc4)c3)ncnc2cn1
430 | 25 | CS(=O)(=O)CCNCc1ccc(-c2cc3c(Nc4ccc(OCc5ccccc5)cc4)ncnc3cn2)o1
